From patent US11136342B2, “Carbonate prodrugs and methods of using the same” (Acorda Therapeutics, Inc., priority 2008, dated 2021)
In brackets after ≈: the same amount, converted by molar mass. Read-outs that look alike come from different tables or passages of the source.

Legend:
Format in all cases: physicochemical
[1] = Prodrug stability in D2O by proton NMR; conditions: for Remaining Prodrug: water (D2O), room temperature
Experimental: (4-acetamidophenyl carbonic) phosphoric (29.5 mg) was dissolved in D2O (0.7 mL) and monitored by proton NMR.

[2] = Prodrug stability in propylene glycol-d8 at room temperature by 1H and 31P NMR
Experimental: (4-acetamidophenyl carbonic) phosphoric anhydride (20.4 mg) was dissolved in 600 mg propylene glycol-d8 and ^1H and ^31P NMR spectra were recorded at room temperature. In addition to (4-acetamidophenyl carbonic) phosphoric anhydride (d−766 ppm), there were peaks at d+334, 265 (likely H3PO4) and +203 ppm.

[3] = Prodrug stability in propylene glycol-d8 at low temperature by 1H NMR
Experimental: Two samples of (4-acetamidophenyl carbonic) phosphoric anhydride (20 mg each) were dissolved in propylene glycol-d8 (600 mg) and the samples were stored at 4° C. and −20° C.

[4] = Solubility of the prodrug in water, glycerol and propylene glycol; conditions: for solubility: thermodynamic from solid
Experimental: Solubility of the prodrug (4-acetamidophenyl carbonic) phosphoric anhydride was determined in water, glycerol, and propylene glycol. 10 mg of (4-acetamidophenyl carbonic) phosphoric anhydride was weighed into a vial, small amounts of solvent were added and the mixture was sonicated until a solution formed.

half-life at 42.1 mg/mL ([1]; D2O, 29.5 mg in 0.7 mL): ~1.5 h | Remaining Prodrug ([1]; 3 min): 94.4% | Remaining Prodrug ([1]; 9 min): 90.3% | Remaining Prodrug ([1]; 14 min): 86.4% | Remaining Prodrug ([1]; 29 min): 75.7% | Remaining Prodrug ([1]; 39 min): 70.9% | Remaining Prodrug ([1]; 49 min): 65.6% | Remaining Prodrug ([1]; 60 min): 61.0% | Remaining Prodrug ([1]; 75 min): 55.5% | Remaining Prodrug ([1]; 90 min): 50.6% | Remaining Prodrug ([1]; 105 min): 46.0% | Remaining Prodrug ([1]; 120 min): 41.7% | Remaining Prodrug ([1]; 146 min): 36.7% | Remaining Prodrug ([1]; 188 min): 29.3% | Remaining Prodrug ([1]; 270 min): 20.2% | Remaining Prodrug ([1]; 375 min): 13.9% | Remaining Prodrug ([1]; 420 min): 11.7% | Remaining Prodrug ([1]; 495 min): 8.4% | Remaining Prodrug ([1]; 840 min): 3.0% | Remaining Prodrug ([1]; 1410 min): 1.4% | half-life at 34 mg/g solvent [2]: ~6.3 h | Remaining Prodrug 1H NMR ([2]; 10 min): 94.03% | Remaining Prodrug 31P NMR ([2]; 10 min): 96.7% | Remaining Prodrug 1H NMR ([2]; 18 min): 92.64% | Remaining Prodrug 31P NMR ([2]; 18 min): 94.5% | Remaining Prodrug 1H NMR ([2]; 28 min): 90.79% | Remaining Prodrug 31P NMR ([2]; 28 min): 92.1% | Remaining Prodrug 1H NMR ([2]; 41 min): 88.57% | Remaining Prodrug 31P NMR ([2]; 41 min): 89.9% | Remaining Prodrug 1H NMR ([2]; 51 min): 86.84% | Remaining Prodrug 31P NMR ([2]; 51 min): 88.4% | Remaining Prodrug 1H NMR ([2]; 61 min): 85.36% | Remaining Prodrug 31P NMR ([2]; 61 min): 86.4% | Remaining Prodrug 1H NMR ([2]; 70 min): 83.93% | Remaining Prodrug 31P NMR ([2]; 70 min): 85.0% | Remaining Prodrug 1H NMR ([2]; 120 min): 74.63% | Remaining Prodrug 31P NMR ([2]; 120 min): 77.6% | Remaining Prodrug 1H NMR ([2]; 169 min): 68.80% | Remaining Prodrug 31P NMR ([2]; 169 min): 71.7% | Remaining Prodrug 1H NMR ([2]; 228 min): 62.97% | Remaining Prodrug 31P NMR ([2]; 228 min): 64.9% | Remaining Prodrug 1H NMR ([2]; 297 min): 56.82% | Remaining Prodrug 31P NMR ([2]; 297 min): 57.4% | Remaining Prodrug 1H NMR ([2]; 345 min): 52.10% | Remaining Prodrug 31P NMR ([2]; 345 min): 52.8% | Remaining Prodrug 1H NMR ([2]; 380 min): 49.13% | Remaining Prodrug 31P NMR ([2]; 380 min): 49.6% | Remaining Prodrug 1H NMR ([2]; 425 min): 46.33% | Remaining Prodrug 31P NMR ([2]; 425 min): 46.6% | Remaining Prodrug 1H NMR ([2]; 446 min): 45.67% | Remaining Prodrug 31P NMR ([2]; 446 min): 44.0% | Remaining Prodrug 1H NMR ([2]; 1269 min): 19.61% | Remaining Prodrug 31P NMR ([2]; 1269 min): 17.1% | Acetaminophen Formation ([3]; propylene glycol-d8, 4° C., 0.17 h): 7.1% | Acetaminophen Formation ([3]; propylene glycol-d8, 4° C., 19.3 h): 37.8% | Acetaminophen Formation ([3]; propylene glycol-d8, 4° C., 44.5 h): 58.5% | Acetaminophen Formation ([3]; propylene glycol-d8, 4° C., 68.7 h): 71.5% | Acetaminophen Formation ([3]; propylene glycol-d8, 4° C., 94.0 h): 79.3% | Acetaminophen Formation ([3]; propylene glycol-d8, 4° C., 116 h): 83.1% | Acetaminophen Formation ([3]; propylene glycol-d8, 4° C., 140 h): 84.6% | Acetaminophen Formation ([3]; propylene glycol-d8, −20° C., 0.17 h): 10.1% | Acetaminophen Formation ([3]; propylene glycol-d8, −20° C., 19.3 h): 15.0% | Acetaminophen Formation ([3]; propylene glycol-d8, −20° C., 44.5 h): 20.5% | Acetaminophen Formation ([3]; propylene glycol-d8, −20° C., 68.7 h): 25.0% | Acetaminophen Formation ([3]; propylene glycol-d8, −20° C., 94.0 h): 29.0% | Acetaminophen Formation ([3]; propylene glycol-d8, −20° C., 116 h): 32.2% | Acetaminophen Formation ([3]; propylene glycol-d8, −20° C., 140 h): 36.2% | solubility ([4]; organic solvent or mixture, glycerol d=1.25 g/mL, read-out: Solubility in glycerol): 20.6 mg/mL (≈ 74.9 mM) | solubility ([4]; organic solvent or mixture, propylene glycol d=1.036 g/mL, read-out: Solubility in propylene glycol): 154 mg/mL (≈ 560 mM) | solubility ([4]; water, room temperature, read-out: Solubility in water): 152 mg/mL (≈ 552 mM) | Water solubility relative to acetaminophen ([4]; water, room temperature): more than 10 times
SMILES: CC(=O)Nc1ccc(OC(=O)OP(=O)(O)O)cc1 [(4-acetamidophenyl carbonic) phosphoric anhydride]
Effect of low temperature storage on stability ([3]; propylene glycol-d8, 4° C. and −20° C.): low temperature storage improved the stability
